Results from patent US7683031B2, “Short peptides from the ‘2nd loop’ of 7 transmembrane receptor which selectively modulate signal transduction” (Yissum Research Development Company of the Hebrew …, priority 2002, dated 2010).

How the values were obtained:
aortic ring = assay: Aortic ring assay (capillary growth ex vivo in collagen matrix gel); format: cell-based, rat; conditions: for aortic ring neovascularization in presence of G-protein inhibitor PTX / aortic ring neovascularization: S1P 100 μm, R002L103 20 μm, FIG. 4; for aortic ring neovascularization in presence of G-protein inhibitor PTX: PTX 100 nm/ml; for aortic ring neovascularization: without PTX; for neovascularization effect, each agent alone / angiogenetic effect, each agent alone: R002L103 20 μg; for angiogenetic effect, each agent alone: VEGF 12 nm/ml
Method: The following are suitable in vivo or ex vivo modes for angiogenesis: • (1) Aortic ring—where sprouting of newly formed blood vessels is tested whole mounts of aortic rings obtained from rats (see below) • (2) Eye assay—where formation of new blood vessels in the cornea of the animal as a response to an FGF-implanted pellet is determined (see below). • (3) Sponge assay—where infiltration of new blood vessels into a sponge implanted s.c. in an experimental animal is determined (see below) • (4) Regression of pre-formed vasculature in tumors (Benjamin L. E. and Kesshet E. PNAS, 94, 8761-8766, (1997)). • (5) Re-establishment of circulation in dissected vessels in the limbs of experimental animals. Experimental Procedures: 1. Aortic Ring-Assay:
The modification of previously described assay (Nicosia, R. F. and Ottinetti, A. “Growth of microvessels in serum-free matrix culture of rat aorta.” Lab. Invest. 63:115-122. 1990) for capillary growth ex vivo was used. The assay is based on the phenomenon of endothelial cells proliferation from freshly prepared aorta placed into collagen matrix gel, that finally formed new capillary system.
The experiments were carried out on two lines of animals—Sabra and Sprague-Dawley rats, males of 200-250 g-body weight (1-2 month old). Rats were acclimated to vivarium for 4-10 days before their use in study protocol. Each group (from 2 to 4) of the animals was housed in separate cage and fed food and water ad libitum.
Animals were sacrificed by decapitation after ether anesthesia Thoracic aortas were dissected and immediately transferred to a Petri dish with bio-mpm-1. The fibroadipose tissue and small vessels around aorta was carefully removed under a dissecting microscope, 1 mm-long aortic rings were sectioned and extensively (2-3 times) rinsed in bio-mpm-1 containing antibiotics (% cat.) (Nicosia and Ottinetti, 1990).
The collagen matrix gel solution (see above) was added to 24-well plate (0.4 ml to each well) and collagen polymerization was allowed for 15 min at 37° C. The aorta rings were transferred to the collagen gel solution (in order to glue them to the bottom layer of the gel) and then placed to the center of each well. In mice, 3 rings are embedded in the same well. After 15 min incubation of the plates at 37° C. another 0.4 ml of the collagen solution was carefully added on the top of the ring. After the gel is formed 0.4 ml of Serum-Free Endothelial Growth Medium (Rhenium, cat. 17601-030) or bio-mpm-1 (Beit Haemeq cat. 05-060-1) was added to each well. Rings were incubated in 37° c. and 10% CO2. Medium is replaced every 2-3 days.
Compound of the invention were added next day after collagen gel formation in concentration 10-20 uM. compounds were dissolved for 10 mM stock in 100% DMSO. Dilution in 0.1% BSA in PBS to 400 uM stock were done for each AR experiment de novo. The compounds were re-added to AR during each medium changing till well developed capillary system in control or experimental wells.
Fixation was carried out by adding of Buffered Formalin 4% (was obtained from BioLab, cat. 66554) 1.5 ml in each well. An hour later solution was changed to fresh Formalin in order to better fixation (overnight).
We used Crystal Violett (Gencian Violett) 0.02% in Ethanol Abs. as staining solution (1 ml for each well overnight at room temperature). After staining, wells were washed massively with 0.02% Sodium Azide water solution during two or three days till transparent matrix.
Digital pictures were analyzed using ImagePro™ software. The total capillary length of at least 6 AR was measured. Dividing the total capillary length to AD diameter normalized the data.

B16 cells [1] = assay: Melanogenesis in B16 cells (melanin, absorbance 405 nm); format: cell-based; conditions: tbi formulation; for EC50: read-out: EC 50 melanogenesis; for melanogenesis induction: β3-derived peptides up to 2.5 μM, FIG. 14-18
Method: (§1) B16 melanocyet cells were grown in DMEM with 4 mM L-glutamine, supplemented with 10% bovine calf serum in a 37° C. humidified incubator with 5% CO2. The day before the assays, 100 μl of 3×10^4 cells/ml were plated in 96-well microtiter plates overnight.
The day after B16 cells culturing, differential concentrations of stimulator (peptides or αMSH as positive control) were added. The cells were incubated for another 3 days then adding 70 ul of 1N NaOH stopped the reaction. The production of melanin was measured after 24 h as the optical absorbance in […].
“tbi” Formulation: peptides (10 mM final) were dissolved in DMSO (final 8%) and 2M Ammonium Bicarbonate (32% final) were added, the mixture was heated for 40 min then 2M HEPES pH 7.5 60% (final) were added.

cornea of mice = assay: Eye assay (neovascularization in the cornea after pellet implantation); format: in vivo; conditions: five days after implantation; for blood vessels course of growth: FIG. 10
Method: The modification of the assay previously described in “A model of angiogenesis in the mouse cornea” B. M. Kenyon, E. E. Voest, C. C. Chen, E. Flynn J. Folkman and R. J. D'Amato Investigative Ophthalmology & Visual Science, July 1996, Vol. 37, No. 8 1625-1632 was used. The assay is based on the phenomena of formation of new blood vessels in the cornea of mice in response to the implantation in the cornea of a pellet impregnated with FGF.
1. To prepare—Hydron concentrated stock solution (120 mg/ml in ethanol Abs.) • Hydron diluted stock solution (60 mg/ml in ethanol Abs.) • sucralfate stock solution (500 mg/ml in solution S sterile!). • 10 mg peptide.
2. Add 30 μl of solution S to peptide (or 10 μl of solution S and 20 μl of FGF).
3. Add 20 μl of sucralfate stock solution—vortex, speedvac for 5 min (more if needed).
4. Add […] hydron diluted stock solution to sucralfate+FGF+peptide pellet.
Mice were anesthetized with Ketamin/Rompun Solution (for dosage and solutions preparation see standard anesthetic procedure). The eye is topically anesthetized with Localin (Benoxynate HCl 0.4%, Dr. Fisher, Pharmaceutical Labs, P.O.B. 39071, Tel-Aviv 61390). Using a binocular microscope, a central intrastromal linear keratotomy is performed with a surgical blade parallel to the insertion of the lateral rectus muscle. Approximate length of the cut is 0.5-0.6 mm length. The globe is proptosed with a forceps. A lamellar micropocket is dissected toward the temporal limbus using the modified von Graefe knife 2×30 mm. All following procedures must be done without proptosis. A pellet is placed on the corneal surface in the base of the pocket and advanced to the temporal end of the pocket with one arm of the forceps. The distance between pellet and limbal vessel is measured. For FGF containing pellets, the pocket must be extended within 1 mm of the limbus. Antibiotic and antimycotic ointment are applied to the operated eye to prevent infection and additional irritation of the cornea.
Measurements were done at 5th and 7th days after implantation. In the case of high stimulation inspections were done twice a week till full degradation. The maximum vessel length of neovascularization zone, extending from the limbal vessel toward the pellet was measured. The econtiguous circumferential zone of neovascularization was measured as clock hours (where 30° are equals 1 clock hour.)

B16 cells [2] = assay: cAMP assay in B16 cells; format: cell-based; conditions: 10 μM peptide, after 1 h, FIG. 12
Method: as §1
(§2) At the day of the assay medium was replaced with serum free medium containing 0.5 mM 3-isobutyl-methylxanthine and the experimental peptides were added for 60 min. The incubation was stopped by replacing the medium with lysis regent supplied in a commercial cAMP kit.
(§3) cAMP levels were determined using cAMP enzymeimmunoassay (EIA) system Biotra Amersham Pharmacia Biotech.

3T3L1 adipocytes cells = assay: cAMP assay in 3T3L1 adipocytes cells; format: cell-based; conditions: FIG. 13
Method: 3T3L1 fibroblast were maintained in DMEM with 4 mM L-glutamine, supplemented with 10% calf serum in a 37° C. humidified incubator with 5% CO2. To differentiate fibroblast into adipocytes, cells were grown for 2 days after confluence. The media was then changed to DMEM containing 10% fetal bovine serum; 0.5 mM isobutylmethlxanthine; 4 μg/ml dexamethasone. 3 days later cells were maintained in DMEM containing 10% fetal bovine serum for two weeks, after which the cells were used for cAMP assay.
[…] The incubation was stopped by replacing the medium with lysis regent supplied in a commercial cAMP kit.
as §3

[3] = system: β2-adrenergic transfected HEK293 cells; assay: cAMP assay in β2-adrenergic transfected HEK293 cells; format: cell-based; conditions: 10 μM peptide, after 1 h, FIG. 11
Method: The HEK293 cells were grown in Dulbecco's Modified Eagle's medium (DMEM) with 4 mM L-glutamine, supplemented with 10% horse serum in a 37° C. humidified incubator with 5% CO2. HEK293 cells were transfected using the fuGENE 6 Transfection Reagent. The following amounts of each expression plasmid were used for transfection of each well in a 6-well culture plate: 3 ug of pBK-flag β2AR; 3 ug of pRK5-GRK2 or in combination of 1.5 ug of pBK-flag β2AR and pRK5-GRK2. Cells were harvested after 24 h and transferred into 96-well culture plate (10^5 cells/ml) and a cAMP assay was carried out 48 h post transfection.
as §2, §3

CCCCCCCCCCCCC/C=C/[C@@H](O)[C@@H](N)COP(=O)(O)O [S1P, sphingosine-1-phosphate, reference compound]
aortic ring neovascularization in presence of G-protein inhibitor PTX (aortic ring): completely blocked | aortic ring neovascularization (aortic ring): caused neovascularization

FGF: pro-angiogenetic compound; bFGF, human recombinant, in materials
neovascularization effect, each agent alone (aortic ring; FGF 10 ng/ml, FIG. 8): no effect

GLLRRHS [K024H107, MC1 receptor Loop 2 derived-modified peptide]
EC50 (B16 cells [1]): 2000 nM | melanogenesis induction (B16 cells [1]): very efficient in inducing melanogenesis

LGLLRRHSI [K024H124, MC1 receptor Loop 2 derived-modified peptide]
EC50 (B16 cells [1]): 150 nM | melanogenesis induction (B16 cells [1]): very efficient in inducing melanogenesis

R002L103: peptide based on sequence SEQ ID NO:3 of the 2nd loop of EDG3 (FIG. 1A) (MRPYDANKR)
neovascularization in the eye in response to implantation of a pellet (cornea of mice; FIG. 9): marked neovascularization | number of blood vessels compared to VEGF (cornea of mice; FIG. 9): larger number of blood vessels | blood vessels course of growth (cornea of mice): relatively straight | angiogenesis in aortic rings (aortic ring; 10 μm and 20 μm R002L103, degree at least equal to that of S1P 100 nm, FIG. 3): increase angiogenesis in a dose dependent manner | capillary length (aortic ring; 20 μm, FIG. 2): decreased | neovascularization effect, each agent alone (aortic ring; FGF 10 ng/ml, FIG. 8): no effect | neovascularization, combination with FGF (aortic ring; R002L103 20 μg + FGF 10 ng/ml, FIG. 8): very significant neovascularization | neovascularization, combination with SCF (aortic ring; R002L103 20 μg + SCF 30 nm/ml, FIG. 7): marked synergism and significant neovascularization | neovascularization, combination with VEGF (aortic ring; R002L103 20 μg + VEGF 12 nm/ml, FIG. 6): marked and significant neovascularization | aortic ring neovascularization in presence of G-protein inhibitor PTX (aortic ring): completely blocked | aortic ring neovascularization (aortic ring): caused neovascularization | neovascularization effect, each agent alone (aortic ring; SCF 30 nm/ml, FIG. 7): no neovascularization effect | angiogenetic effect, each agent alone (aortic ring; FIG. 6): hardly any angiogenetic effect | capillary length (aortic ring; from control to 10 μm, FIG. 2): increased | capillary thickness (aortic ring; various concentrations of R002L103, FIG. 2): directly correlated to the concentration

R013L101: β3-adrenergic Loop 2 derived peptide (GNPLRYGALVT)
cAMP production comparing to the control level (B16 cells [2]): 900% | melanogenesis induction (B16 cells [1]): failed as melanogenesis inducers | level of cAMP increase (3T3L1 adipocytes cells; after 60 min of incubation): 18 fold | cAMP production comparing to the control level [3]: 140%

R013L102: β3-adrenergic Loop 2 derived peptide (GLRYGALVTK)
melanogenesis induction (B16 cells [1]): failed as melanogenesis inducers | level of cAMP increase (3T3L1 adipocytes cells; after 120 min of incubation): did not affect

R013L103: β3-adrenergic Loop 2 derived peptide (GPLRYGALVT)
cAMP production comparing to the control level (B16 cells [2]): did not affect | melanogenesis induction (B16 cells [1]): failed as melanogenesis inducers | level of cAMP increase (3T3L1 adipocytes cells; after 120 min of incubation): 18 fold | cAMP production comparing to the control level [3]: did not affect

SCF: another pro-angiogenetic compound
neovascularization effect, each agent alone (aortic ring; SCF 30 nm/ml, FIG. 7): no neovascularization effect

VEGF
neovascularization in the eye in response to implantation of a pellet (cornea of mice; FIG. 9): able to induce neovascularization | blood vessels course of growth (cornea of mice): more coiled | angiogenetic effect, each agent alone (aortic ring; FIG. 6): hardly any angiogenetic effect
